# Data from patent US20160129080A1, “TREATMENT OF POLYPOIDAL CHROIDAL VASCULOPATHY” (priority 2013, published 2016).
# B1: ranibizumab (antibody, chains of the INN, looked up, V domains shown)
# VH: EVQLVESGGGLVQPGGSLRLSCAASGYDFTHYGMNWVRQAPGKGLEWVGWINTYTGEPTYAADFKRRFTFSLDTSKSTAYLQMNSLRAEDTAVYYCAKYPYYYGTSHWYFDVWGQGTLVTVSS
# VL: DIQLTQSPSSLSASVGDRVTITCSASQDISNYLNWYQQKPGKAPKVLIYFTSSLHSGVPSRFSGSGSGTDFTLTISSLQPEDFATYYCQQYSTVPWTFGQGTKVEIK
# modifications: Fab
# notes: anti-VEGF antibody antagonist approved for human use
# What was measured:
# [1] = Indocyanine green angiography-assessed complete regression of polyps, randomized three-group patient study; format: in vivo, human; conditions: month 6, 61 patients randomized to three groups, ranibizumab 0.5 mg intravitreal
# Method: (§1) Sixty-one patients were randomized to three treatment groups: verteporfin photodynamic therapy, ranibizumab 0.5 mg, or the combination. Patients were administered with verteporfin photodynamic therapy/placebo and initiated with three consecutive monthly intravitreal ranibizumab/sham injections starting from day 1 (first photodynamic therapy session). Indocyanine green angiography was performed at baseline and at months 3, 4, 5, and 6. Fluorescein angiography was performed to assess the presence of leakage and to obtain fundus photographs at the same times. Changes in central retinal thickness were determined by optical coherence tomography. Treatment with ranibizumab/sham injections was repeated at months 3-5 on an as-needed basis.
# (§2) The primary endpoint was the proportion of patients with indocyanine green angiography-assessed complete regression of polyps at month 6. Secondary endpoints included mean change in best corrected visual acuity at month 6 and safety.
# [2] = Best corrected visual acuity change, randomized three-group patient study; format: in vivo, human; conditions: month 6; mean±SD; ranibizumab 0.5 mg intravitreal
# Method: as §1, §2
Molecule,proportion of patients with complete polyp regression [1],Mean change±standard deviation in best corrected visual acuity [2]
verteporfin,71.4%,7.5±10.6 letters
B1,28.6%,9.2±12.4 letters
